Assay results from patent publication EP4818168A1, “FUSED RING COMPOUND, PHARMACEUTICAL COMPOSITION THEREOF AND USE THEREOF” (priority 2023, dated 2025).
Like-named read-outs stand apart in the source and are kept apart here.

Experiments:
H82 cells = assay: cells; type: cell-based; conditions: Homo sapiens
Procedure: CellTiter-Glo (CTG) is a rapid cell viability test method based on ATP detection. […] Adenosine triphosphate (ATP) participates in various enzymatic reactions in organisms and is an indicator of living cell metabolism. Its content directly reflects the number of living cells and cell status. During the experiment, equal volume of CTG reagent is added to the cultured cells to measure the luminescence value. The chemiluminescent signal value is proportional to the amount of ATP, thus reflecting the number of viable cells. Therefore, cell viability can be obtained by detecting the ATP content. Compounds that affect cell viability will inhibit cell viability in a concentration-dependent manner, allowing a curve to be fitted to obtain the IC50 value.
The experimental procedure is as follows: • 11. Place the cell suspension in a 15 mL centrifuge tube, centrifuge at 1000 rpm for 5 min at room temperature, discard the supernatant, and collect the cell pellet. • 12. Resuspend the cell pellet with preheated complete cell culture medium (RPMI1640+10%FBS+1%PS), and use a Countess® automated cell counter to detect cell viability and density. […] Transfer the compound solution to a 96-well plate seeded with cells (final concentration of DMSO 0.1%), and place in a cell incubator at 37°C, 5% CO2 for 6 days. • 15. […] Protect from light during the whole process. Perform optical signal readings using a SpectraMax i3x reader. • 16. Data analysis: Remaining activity (%) = 100% * (1 - ((LumDMSO - Lummedium) - Lumsample) / (LumDMSO - LumPBS/medium)). Use GraphPad Prism 9.0 software to draw an S-shaped dose-survival rate curve and calculate the IC50 value using a nonlinear regression model.

AURKA = biological target: T1, AURKA (Homo sapiens, UniProt O14965); type: cell-based
T1 construct: endogenous in cells; host or cells: Jurkat cells
T1 sequence (O14965 1-403): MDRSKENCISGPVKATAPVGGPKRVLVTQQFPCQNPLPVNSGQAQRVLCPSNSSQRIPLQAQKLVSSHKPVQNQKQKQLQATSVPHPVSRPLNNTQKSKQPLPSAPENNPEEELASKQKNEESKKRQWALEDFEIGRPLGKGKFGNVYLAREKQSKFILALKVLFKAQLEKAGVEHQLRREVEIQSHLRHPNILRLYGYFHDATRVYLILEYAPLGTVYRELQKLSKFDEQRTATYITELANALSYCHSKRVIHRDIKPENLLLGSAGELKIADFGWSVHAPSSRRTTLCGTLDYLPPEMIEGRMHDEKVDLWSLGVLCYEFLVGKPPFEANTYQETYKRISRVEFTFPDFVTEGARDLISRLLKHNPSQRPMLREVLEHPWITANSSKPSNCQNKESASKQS
Source text: WB is a classical biochemical experimental method used to detect the abundance of a target protein in a sample of cells or biological tissue. It relies on specific antigen-antibody binding to detect protein signals from the sample processed by gel electrophoresis: the protein specifically binds to a primary antibody at an epitope; the primary antibody is then conjugated with a secondary antibody to amplify the signal cascade; the signal is read out by chemiluminescent or fluorescent detection. The intracellular protein content is ultimately characterized by the intensity of the optical signals. […] The DC50 value can be calculated by curve fitting of the protein WB exposure signals.
The experimental procedure is as follows: • 1. Seed Jurkat cells into a 12-well plate at 1×10^6 cells/500 µL/well. • 2. Mix the culture medium with the compound to a concentration that is twice the desired final concentration. […] Transfer the cell suspension to a centrifuge tube. Rinse the 12-well plate with PBS and then transfer the PBS from the plate to the same centrifuge tube. Centrifuge at 3000 rpm for 5 min at room temperature. Aspirate the supernatant using a vacuum pump. […] Lyse on ice for 20 min. • 4. Centrifuge the lysed sample at 13000 rpm for 20 min at 4°C. Mix the supernatant with 5× protein loading buffer. Boil at 100°C for 5 min and then cool. Store the denatured protein sample at -20°C. • 5. […] Run electrophoresis at 80 V for 20 min, and then at 120 V constant voltage for 60 min. • 6. Transfer the protein onto a nitrocellulose membrane in an ice bath at 250 mA constant current for 90 min. • 7. […] Incubate with a primary antibody overnight at 4°C. • 9. […] Incubate with a secondary antibody for 1-2 h at room temperature. • 10. […] Expose and image the membrane using a LICOR Odyssey DLx imager.

[1] = NCI-H82, H82 cells, 4000 cells/well, CellTiter-Glo, read-out: IC50 in H82 Cells
[2] = 100 nM compound, Jurkat cells, 24 h, Table 2
[3] = 1 µM compound, Jurkat cells, 24 h, Table 2
[4] = NCI-H82, read-out: IC50 in H82 Cells

SMILES | IC50 (H82 cells; [1]) | Percentage of AURKA Degradation Induced by 100 nM Compound in Jurkat Cells (AURKA; [2]) | Percentage of AURKA Degradation Induced by 1 µM Compound in Jurkat Cells (AURKA; [3]) | IC50 (H82 cells; [4]) | Percentage of AURKA Degradation Induced by 100 nM Compound in Jurkat Cells (AURKA) | Percentage of AURKA Degradation Induced by 1 µM Compound in Jurkat Cells (AURKA)
O=C1CCN(c2ccc(N3CC4COCC(C3)N4C3CC4(CCN(c5ccc(Nc6ncc7c(n6)-c6ccc(Cl)cc6C(c6c(F)cccc6F)=NC7)cc5)CC4)C3)nc2)C(=O)N1 [Compound A360] | < 1000 nM | +++ (Degradation > 70%) | +++ (Degradation > 70%) |  |  | 
O=C1CCN(c2ccc(N3CC(C4CCN(C(=O)C56CC(Nc7ncc8c(n7)-c7ccc(Cl)cc7C(c7c(F)cccc7F)=NC8)(C5)C6)CC4)C3)nc2)C(=O)N1 [Compound A297] | < 1000 nM | +++ (Degradation > 70%) | +++ (Degradation > 70%) |  |  | 
O=C1CCN(c2ccc(C3CN(C4CN(C(=O)c5ccc(Nc6ncc7c(n6)-c6ccc(Cl)cc6C(c6c(F)cccc6F)=NC7)cc5)C4)C3)nc2)C(=O)N1 [Compound A120] |  | + (Degradation ≤ 30%) | + (Degradation ≤ 30%) | < 1000 nM |  | 
O=C1CCN(c2ccc(N3CCC(C4CN(C(=O)C56CC(Nc7ncc8c(n7)-c7ccc(Cl)cc7C(c7c(F)cccc7F)=NC8)(C5)C6)C4)CC3)nc2)C(=O)N1 [Compound A293] | < 1000 nM | +++ (Degradation > 70%) | +++ (Degradation > 70%) |  |  | 
O=C1CCN(c2ccc(N3CCC(N4CCN(c5ccc(Nc6ncc7c(n6)-c6ccc(Cl)cc6C(c6c(F)cccc6F)=NC7)cc5)C5(COC5)C4)CC3)nc2)C(=O)N1 [Compound A233] | < 1000 nM | ++ (30% < Degradation ≤ 70%) | +++ (Degradation > 70%) |  |  | 
O=C1CCN(c2ccc(N3CCN(C(=O)[C@H]4CN(c5ccc(Nc6ncc7c(n6)-c6ccc(Cl)cc6C(c6c(F)cccc6F)=NC7)cc5)CCO4)CC3)nc2)C(=O)N1 [Compound A325] | < 1000 nM | +++ (Degradation > 70%) | +++ (Degradation > 70%) |  |  | 
O=C1CCN(c2ccc(N3CCC(O)(CN4CCN(C56CC(Nc7ncc8c(n7)-c7ccc(Cl)cc7C(c7c(F)cccc7F)=NC8)(C5)C6)C(=O)C4)CC3)nc2)C(=O)N1 [Compound A290] |  |  |  | < 1000 nM | ++ (key: +: Degradation ≤ 30%; ++: 30% < Degradation ≤ 70%; +++: Degradation > 70%) | +++ (key: +: Degradation ≤ 30%; ++: 30% < Degradation ≤ 70%; +++: Degradation > 70%)
O=C1CCN(c2ccc(N3CCC(C4CCN(C(=O)C56CC(Nc7ncc8c(n7)-c7ccc(Cl)cc7C(c7c(F)cccc7F)=NC8)(C5)C6)CC4)CC3)nc2)C(=O)N1 [Compound A273] | < 1000 nM | +++ (Degradation > 70%) | +++ (Degradation > 70%) |  |  | 
O=C1CCN(c2ccc(NCCN3CCn4c(cnc4-c4ccc(Nc5ncc6c(n5)-c5ccc(Cl)cc5C(c5c(F)cccc5F)=NC6)cc4)C3)cc2)C(=O)N1 [Compound A107] | < 1000 nM | ++ (30% < Degradation ≤ 70%) | ++ (30% < Degradation ≤ 70%) |  |  | 
O=C1CCN(c2ccc(N3CCOC(C(=O)N4CCN(c5ccc(Nc6ncc7c(n6)-c6ccc(Cl)cc6C(c6nccs6)=NC7)cc5)CC4)C3)nc2)C(=O)N1 (stereo not drawn) [Compound A343] | < 1000 nM | +++ (Degradation > 70%) | +++ (Degradation > 70%) |  |  | 
Cn1nc(N2CCC(=O)NC2=O)c2ccc(N3CCC4(CC3)CC(N3CCN(c5ccc(Nc6ncc7c(n6)-c6ccc(Cl)cc6C(c6c(F)cccc6F)=NC7)cc5)CC3)CO4)cc21 (stereo not drawn) [Compound A365] | < 1000 nM | +++ (Degradation > 70%) | +++ (Degradation > 70%) |  |  | 
O=C1CCN(c2cccc(N3CCN(CC4CN(c5cccc(Nc6ncc7c(n6)-c6ccc(Cl)cc6C(c6c(F)cccc6F)=NC7)c5)C4)CC3)c2)C(=O)N1 [Compound A141] | < 1000 nM | +++ (Degradation > 70%) | +++ (Degradation > 70%) |  |  | 
O=C1CCN(c2ccc(N3CCC(C4CCN(c5ccc(Nc6ncc7c(n6)-c6ccc(Cl)cc6C(c6c(F)cccc6F)=NC7)cc5)CC4)CC3)nc2)C(=O)N1 [Compound A271] | < 1000 nM | ++ (30% < Degradation ≤ 70%) | +++ (Degradation > 70%) |  |  | 
Cc1c(N2CCN(CCc3cccc(Nc4ncc5c(n4)-c4ccc(Cl)cc4C(c4c(F)cccc4F)=NC5)c3)CC2)cccc1N1CCC(=O)NC1=O [Compound A155] | < 1000 nM | ++ (30% < Degradation ≤ 70%) | ++ (30% < Degradation ≤ 70%) |  |  | 
Cn1nc(N2CCC(=O)NC2=O)c2cccc(N3CCC4(CC3)CC(N3CCN(c5ccc(Nc6ncc7c(n6)-c6ccc(Cl)cc6C(c6c(F)cccc6F)=NC7)cc5)CC3)CO4)c21 (stereo not drawn) [Compound A364] |  | +++ (Degradation > 70%) | +++ (Degradation > 70%) | < 1000 nM |  | 
COc1ccccc1C1=NCc2cnc(Nc3ccc(C(=O)NC4CC5(CCN(c6ccc(N7CCC(=O)NC7=O)cn6)CC5)C4)cc3)nc2-c2ccncc21 [Compound A137] | < 1000 nM | +++ (Degradation > 70%) | +++ (Degradation > 70%) |  |  | 
N#CC1CN(C2CCN(c3ccc(N4CCC(=O)NC4=O)cn3)CC2)CCN1c1ccc(Nc2ncc3c(n2)-c2ccc(Cl)cc2C(c2c(F)cccc2F)=NC3)cc1 (stereo not drawn) [Compound A251] | < 1000 nM | +++ (Degradation > 70%) | +++ (Degradation > 70%) |  |  | 
N#Cc1nc(N2CCN(C(=O)C3CCN(c4ccc(Nc5ncc6c(n5)-c5ccc(Cl)cc5C(c5c(F)cccc5F)=NC6)cc4)CC3)CC2)ccc1N1CCC(=O)NC1=O [Compound A323] | < 1000 nM | +++ (Degradation > 70%) | +++ (Degradation > 70%) |  |  | 
O=C1CCN(c2ccc(N3CC4COCC(C3)N4C3CCN(c4ccc(Nc5ncc6c(n5)-c5ccc(Cl)cc5C(c5c(F)cccc5F)=NC6)cc4)CC3)nc2)C(=O)N1 [Compound A356] | < 1000 nM | +++ (Degradation > 70%) | +++ (Degradation > 70%) |  |  | 
